From patent US20250161299A1, “ORAL PCLX-001 IN THE TREATMENT OF HUMAN CANCER” (PACYLEX PHARMACEUTICALS INC., priority 2022, published 2025)
“Also recorded” adds a separate entry of the source. Where two headings read alike, the source gives them in different places.

Experiment: Phase I trial of oral PCLX-001: plasma pharmacokinetics, noncompartmental analysis (Phoenix WinNonlin 8.3)
Type: in vivo, human
Settings: for half-life / Tmax / AUC(0-inf) / Cmax / AUC(0-t): human, plasma, po; for half-life: read-out: Half-life (converted); for Tmax: read-out: Tmax; for AUC(0-t): read-out: AUClast or AUCtau
Source text: The clinical trial is entitled “Phase I Trial of PCLX-001 in B-cell Non-Hodgkin Lymphoma and Advanced Solid Malignancies” and registered at clinicaltrials.gov as NCT04836195. It is a phase I dose-escalation study of oral PCLX-001, conducted in a multicenter, non-randomized, open-label, non-controlled design. The study is comprised of two parts: Part A (single-agent dose escalation) and Part B (single-agent expansion cohorts).
Patients are to receive daily oral PCLX-001 on 28-day cycles, beginning with a starting dose of 20 mg.
[…] After dosing, the blood samples (volumes 3 mL) were serially collected into heparinized tubes from a right forearm butterfly cannula. All blood fluid specimens were frozen and later assayed using a validated UHPLC-MS detection method.
Noncompartmental pharmacokinetic analysis was performed using Phoenix WinNonlin 8.3 using trapezoidal rule and linear up log down methodology. WinNonlin was allowed to pick optimal terminal phases.
Nonparametric superposition was performed using Phoenix WinNonlin Nonparametric Superposition to predict steady state data based upon Day 1 data for each patient. It utilized the 8- and 24-hour time points for estimation of terminal phase for the purposes of this exercise. We simulated 20 mg daily oral dosing and simulations were conducted out to steady state. Results are show in FIGS. 5, 6, and 7.
In the non-compartmental analysis, Phoenix WinNonlin 8.3 trapezoidal rule was used, with linear up log down method. This allowed WinNonlin to pick optimal terminal phase (WinNonlin will accept Rsq adjusted to >0.7). Additional analysis to assess adequate fie included visual inspection of data, and AUCextrap should be <15%.
Phoenix WinNonlin 8.3 trapezoidal rule. Used linear up log down method. Allowed WinNonlin to pick optimal terminal phase (WinNonlin will accept Rsq adjusted >0.7).
Other analysis to assess adequate fit. Visual inspection of data. AUCextrap should be <15%.

[1] = 20 mg, Table 1A, Patient 115-002-004 (Patient 3), Day 15, 20 mg oral daily
[2] = 20 mg, Table 6, Patient 115-002-001, Day 1, 20 mg QD oral, Pantoprazole No
[3] = 20 mg, Table 6, Patient 115-002-001, Day 15, 20 mg QD oral, Pantoprazole No
[4] = 20 mg, Table 6, Patient 115-002-002, Day 1, 20 mg QD oral, Pantoprazole No
[5] = 20 mg, Table 6, Patient 115-002-002, Day 15, 20 mg QD oral, Pantoprazole No
[6] = 20 mg, Table 6, Patient 115-002-004, Day 1, 20 mg QD oral, Pantoprazole No
[7] = 20 mg, Table 6, Patient 115-002-004, Day 15, 20 mg QD oral, Pantoprazole No
[8] = 40 mg, Table 7, Patient 115-002-005, Day 1, 40 mg QD oral, Pantoprazole Yes
[9] = 40 mg, Table 7, Patient 115-002-005, Day 15, 40 mg QD oral, Pantoprazole Yes
[10] = 40 mg, Table 7, Patient 115-002-006, Day 1, 40 mg QD oral, Pantoprazole Yes
[11] = 40 mg, Table 7, Patient 115-002-006, Day 15, 40 mg QD oral, Pantoprazole Yes
[12] = 40 mg, Table 7, Patient 115-009-001, Day 1, 40 mg QD oral, Pantoprazole No
[13] = 40 mg, Table 7, Patient 115-009-001, Day 15, 40 mg QD oral, Pantoprazole No
[14] = 70 mg, Table 8, Patient 115-002-007, Day 1, 70 mg QD oral, Pantoprazole Yes
[15] = 70 mg, Table 8, Patient 115-002-007, Day 15, 70 mg QD oral, Pantoprazole Yes
[16] = 70 mg, Table 8, Patient 115-002-008, Day 1, 70 mg QD oral, Pantoprazole Yes
[17] = 70 mg, Table 8, Patient 115-002-008, Day 15, 70 mg QD oral, Pantoprazole Yes
[18] = 70 mg, Table 8, Patient 115-024-001, Day 1, 70 mg QD oral, Pantoprazole No
[19] = 70 mg, Table 8, Patient 115-024-001, Day 15, 70 mg QD oral, Pantoprazole No
[20] = 100 mg, Table 9, Patient 115-002-009, Day 1, 100 mg QD oral, Pantoprazole No
[21] = 100 mg, Table 9, Patient 115-002-010, Day 1, 100 mg QD oral, Pantoprazole No
[22] = 100 mg, Table 9, Patient 115-002-011, Day 1, 100 mg QD oral, Pantoprazole No
[23] = 100 mg, Table 9, Patient 115-002-011, Day 15, 100 mg QD oral, Pantoprazole No
[24] = 100 mg, Table 9, Patient 115-002-012, Day 1, 100 mg QD oral, Pantoprazole No
[25] = 100 mg, Table 9, Patient 115-002-012, Day 15, 100 mg QD oral, Pantoprazole No
[26] = 140 mg, Table 10, Patient 115-002-006, Day 1, Dose 140 mg QD oral, Concomitant Pantoprazole No
[27] = 140 mg, Table 10, Patient 115-002-006, Day 15, Dose 140 mg QD oral, Concomitant Pantoprazole No
[28] = 140 mg, Table 10, Patient 115-024-005, Day 1, Dose 140 mg QD oral, Concomitant Pantoprazole Yes
[29] = 140 mg, Table 10, Patient 115-024-005, Day 15, Dose 140 mg QD oral, Concomitant Pantoprazole Yes
[30] = 140 mg, Table 10, Patient 115-024-013, Day 1, Dose 140 mg QD oral, Concomitant Pantoprazole Yes
[31] = 140 mg, Table 10, Patient 115-024-013, Day 15, Dose 140 mg QD oral, Concomitant Pantoprazole Yes

Structure (SMILES): Cc1c(NS(=O)(=O)c2c(Cl)cc(-c3ccnc(N4CCNCC4)c3)cc2Cl)c(CC(C)C)nn1C [PCLX-001, 2,6-dichloro-N-(3-isobutyl-1,5-dimethyl-1H-pyrazol-4-yl)-4-(2-(piperazin-1-yl)pyridin-4-yl)benzene sulfonamide]
- half-life [1]: 6.86 h
- Tmax [1]: 0.5 h
- AUC(0-inf) [2]: 2030 ng·h/mL
- Cmax [2]: 360 ng/mL
- AUC(0-t) [2]: 1720 ng·h/mL
- half-life [2]: 8.34 h
- Tmax [2]: 1 h
- AUC(0-inf) [3]: 3600 ng·h/mL
- Cmax [3]: 479 ng/mL
- AUC(0-t) [3]: 2750 ng·h/mL
- half-life [3]: 10.9 h
- Tmax [3]: 1 h
- Cmax [4]: 142 ng/mL
- AUC(0-t) [4]: 1300 ng·h/mL
- Tmax [4]: 4 h
- AUC(0-inf) [5]: 2440 ng·h/mL
- Cmax [5]: 243 ng/mL
- AUC(0-t) [5]: 2010 ng·h/mL
- half-life [5]: 9.42 h
- Tmax [5]: 2 h
- AUC(0-inf) [6]: 1880 ng·h/mL
- Cmax [6]: 326 ng/mL
- AUC(0-t) [6]: 1780 ng·h/mL
- half-life [6]: 5.51 h
- Tmax [6]: 2 h
- AUC(0-inf) [7]: 2110 ng·h/mL
- Cmax [7]: 356 ng/mL
- AUC(0-t) [7]: 1900 ng·h/mL
- half-life [7]: 6.47 h
- Tmax [7]: 0.5 h
- AUC(0-inf) [8]: 4900 ng·h/mL
- Cmax [8]: 868 ng/mL
- AUC(0-t) [8]: 4430 ng·h/mL
- half-life [8]: 7.5 h
- Tmax [8]: 0.5 h
- AUC(0-inf) [9]: 7060 ng·h/mL
- Cmax [9]: 802 ng/mL
- AUC(0-t) [9]: 6680 ng·h/mL
- half-life [9]: 5.54 h
- Tmax [9]: 2 h
- Cmax [10]: 7.13 ng/mL
- AUC(0-t) [10]: 79.6 ng·h/mL
- Tmax [10]: 4 h
- Cmax [11]: 40.8 ng/mL
- AUC(0-t) [11]: 175 ng·h/mL
- Tmax [11]: 4 h
- AUC(0-inf) [12]: 12600 ng·h/mL
- Cmax [12]: 1670 ng/mL
- AUC(0-t) [12]: 10100 ng·h/mL
- half-life [12]: 10.8 h
- Tmax [12]: 1 h
- AUC(0-inf) [13]: 18300 ng·h/mL
- Cmax [13]: 1480 ng/mL
- AUC(0-t) [13]: 13700 ng·h/mL
- half-life [13]: 11.9 h
- Tmax [13]: 2 h
- Cmax [14]: 158 ng/mL
- AUC(0-t) [14]: 1960 ng·h/mL
- Tmax [14]: 4 h
- Cmax [15]: 602 ng/mL
- AUC(0-t) [15]: 8130 ng·h/mL
- Tmax [15]: 4 h
- Cmax [16]: 408 ng/mL
- AUC(0-t) [16]: 4550 ng·h/mL
- Tmax [16]: 8 h
- Cmax [17]: 170 ng/mL
- AUC(0-t) [17]: 3380 ng·h/mL
- Tmax [17]: 8 h
- Cmax [18]: 1430 ng/mL
- AUC(0-t) [18]: 9400 ng·h/mL
- half-life [18]: 9.44 h
- Tmax [18]: 1 h
- Cmax [19]: 629 ng/mL
- AUC(0-t) [19]: 7300 ng·h/mL
- Tmax [19]: 4 h
- AUC(0-inf) [20]: 15400 ng·h/mL
- Cmax [20]: 1740 ng/mL
- AUC(0-t) [20]: 14800 ng·h/mL
- half-life [20]: 5.02 h
- Tmax [20]: 2 h
- AUC(0-inf) [21]: 22400 ng·h/mL
- Cmax [21]: 2490 ng/mL
- AUC(0-t) [21]: 20000 ng·h/mL
- half-life [21]: 7.17 h
- Tmax [21]: 2 h
- AUC(0-inf) [22]: 16200 ng·h/mL
- Cmax [22]: 1650 ng/mL
- AUC(0-t) [22]: 13200 ng·h/mL
- half-life [22]: 9.6 h
- Tmax [22]: 2 h
- Cmax [23]: 1160 ng/mL
- AUC(0-t) [23]: 17900 ng·h/mL
- Tmax [23]: 4 h
- Cmax [24]: 1210 ng/mL
- AUC(0-t) [24]: 12600 ng·h/mL
- Tmax [24]: 4 h
- AUC(0-inf) [25]: 19400 ng·h/mL
- Cmax [25]: 1530 ng/mL
- AUC(0-t) [25]: 17000 ng·h/mL
- half-life [25]: 7.56 h
- Tmax [25]: 2 h
- AUC(0-inf) [26]: 24200 ng·h/mL
- Cmax [26]: 2710 ng/mL
- AUC(0-t) [26]: 21200 ng·h/mL
- half-life [26]: 7.91 h
- Tmax [26]: 0.5 h
- AUC(0-inf) [27]: 41900 ng·h/mL
- Cmax [27]: 2200 ng/mL
- AUC(0-t) [27]: 26000 ng·h/mL
- half-life [27]: 16.4 h
- Tmax [27]: 2 h
- AUC(0-inf) [28]: 4160 ng·h/mL
- Cmax [28]: 406 ng/mL
- AUC(0-t) [28]: 3630 ng·h/mL
- half-life [28]: 7.56 h
- Tmax [28]: 1 h
- AUC(0-inf) [29]: 7180 ng·h/mL
- Cmax [29]: 295 ng/mL
- AUC(0-t) [29]: 4320 ng·h/mL
- half-life [29]: 17.4 h
- Tmax [29]: 2 h
- AUC(0-inf) [30]: 11500 ng·h/mL
- Cmax [30]: 2190 ng/mL
- AUC(0-t) [30]: 10900 ng·h/mL
- half-life [30]: 5.86 h
- Tmax [30]: 1 h
- AUC(0-inf) [31]: 14300 ng·h/mL
- Cmax [31]: 1510 ng/mL
- AUC(0-t) [31]: 11000 ng·h/mL
- half-life [31]: 10.1 h
- Tmax [31]: 1 h
- peak plasma concentrations versus concentrations active in cultured cells (patients 1, 2 and 3, 20 mg oral daily): exceeded those needed to suppress cultured human cancer cell growth
- trough plasma concentrations (immediately prior to dosing on day 2, 15, and 22) (patients 1, 2 and 3, 20 mg oral daily, versus allometric scaling from mice, rats, dogs): higher than anticipated
- effect of pantoprazole on systemic exposure / oral absorption (patients taking pantoprazole vs not): lower in patients taking pantoprazole; also recorded: reduces oral absorption
